Source: patent US20110171321A1, “ELASTOMERIC ARTICLE HAVING A BROAD SPECTRUM ANTIMICROBIAL AGENT AND METHOD OF MAKING” (priority 2008, published 2011)

Tested on: E. coli, E. faecalis, K. pneumoniae, P. aeruginosa, C. albicans, S. aureus, and S. epidermidis
Assay: zone of inhibition (ZOI), control articles in each plate
Type: cell-based
Conditions: 10 μg disk, values not shown
From the text: Samples were submitted in duplicate for each sterilization process. […] The diameter of each zone is reported in millimeters. […] The control results are not shown.

In the case of gentamicin, the “inhibition by positive control” value is reported as “expected inhibition”.
